Test results reported in patent US9150568B2, “Compositions and methods for modulating FXR” (NOVARTIS AG, priority 2010, dated 2015).
pEC50: −log10 of the molar value.

Target: T1, human Farnesoid X Receptor (FXR) ligand binding domain (GST-FXR LBD) (Homo sapiens, UniProt Q96RI1)
T1 construct: purchased Invitrogen
T1 sequence (Q96RI1 193-472 isoform Q96RI1-2): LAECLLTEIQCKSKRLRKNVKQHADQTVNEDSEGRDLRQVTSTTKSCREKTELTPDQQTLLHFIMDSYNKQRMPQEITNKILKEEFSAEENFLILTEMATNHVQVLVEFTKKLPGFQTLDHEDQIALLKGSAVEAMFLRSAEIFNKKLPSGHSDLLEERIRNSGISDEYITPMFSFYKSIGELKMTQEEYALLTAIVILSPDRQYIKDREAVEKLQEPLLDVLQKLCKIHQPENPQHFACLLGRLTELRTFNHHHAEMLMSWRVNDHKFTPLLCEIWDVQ
Assay: Human GST-FXR LBD co-activator interaction assay (HTRF)
Type: biochemical
Details: GST-FXR LBD / biotin-SRC-1 peptide FRET; response relative to GW4064; read-out: FXR Co-activator interaction assay (EC50)
Summary of the method: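 FRET (HTRF) read-out of ligand-induced binding between GST-FXR LBD and an SRC-1 peptide, detected with anti-GST cryptate and streptavidin-XL665 in buffer with 50 mM KF. Response % was normalized to DMSO and to the maximal GW4064 response. EC50 came from a four-parameter fit.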

| SMILES | pEC50 |
| --- | --- |
| COC(=O)c1ccc(N2C3CC[C@H]2CC(OCc2c(-c4ccccc4C(F)(F)F)noc2C2CC2)C3)c(F)c1 (some centres unmarked) [Example 25-5A] | 6.55 |
| O=C(O)c1ccc(N2C3CC[C@H]2CC(OCc2c(-c4ccccc4C(F)(F)F)noc2C2CC2)C3)c(F)c1 (some centres unmarked) [Example 25-5B] | 9.00 |
| COC(=O)c1ccc(N2C3CC[C@H]2CC(OCc2c(-c4ccccc4OC(F)F)noc2C2CC2)C3)c(F)c1 (some centres unmarked) [Example 25-6A] | 8.05 |
| O=C(O)c1ccc(N2C3CC[C@H]2CC(OCc2c(-c4ccccc4OC(F)F)noc2C2CC2)C3)c(F)c1 (some centres unmarked) [Example 25-6B] | 8.52 |
| NC(=O)c1ccc(N2C3CC[C@H]2CC(OCc2c(-c4ccccc4OC(F)F)noc2C2CC2)C3)c(F)c1 (some centres unmarked) [Example 27] | 8.70 |
| O=C(O)c1nsc2cc(N3C4CC[C@H]3CC(OCc3c(-c5ccccc5OC(F)(F)F)noc3C3CC3)C4)ccc12 (some centres unmarked) [Example 28-1B, 6-(3-((5-Cyclopropyl-3-(2-(trifluoromethoxy)phenyl)isoxazol-4-yl)methoxy)-8-azabicyclo[3.2.1]octan-8-yl)benzo[d]isothiazole-3-carboxylic acid] | 9.22 |
| O=C(O)c1cnc2ccc(N3C4CC[C@H]3CC(OCc3c(-c5ccccc5OC(F)(F)F)noc3C3CC3)C4)cn12 (some centres unmarked) [Example 28-2] | 7.80 |
| O=C(O)c1cnc2cc(N3C4CC[C@H]3CC(OCc3c(-c5ccccc5OC(F)(F)F)noc3C3CC3)C4)ccc2c1 (some centres unmarked) [Example 28-3] | 9.10 |
| Cn1c(C(=O)O)cc2ccc(N3C4CC[C@H]3CC(OCc3c(-c5ccccc5OC(F)(F)F)noc3C3CC3)C4)cc21 (some centres unmarked) [Example 28-4] | 8.70 |
| O=C(O)c1ccc(N2C3CC[C@H]2CC(OCc2c(-c4ccccc4OC(F)(F)F)noc2C2CC2)C3)cc1 (some centres unmarked) [Example 28-6] | 8.77 |
| O=C(O)C1(c2ccc(N3C4CC[C@H]3CC(OCc3c(-c5ccccc5OC(F)(F)F)noc3C3CC3)C4)cc2)CC1 (some centres unmarked) [Example 28-7] | 7.68 |
| Cc1c(N2[C@@H]3CC[C@H]2C[C@@H](OCc2c(-c4ccccc4C4CC4)noc2C2CC2)C3)ccc2oc(C(=O)O)cc12 [Example 28-8] | 7.98 |
| Cc1c(N2C3CC[C@H]2CC(OCc2c(-c4ccccc4Cl)noc2C2CC2)C3)ccc2oc(C(=O)O)cc12 (some centres unmarked) [Example 28-9] | 9.52 |
| Cc1c(N2C3CC[C@H]2CC(OCc2c(-c4c(F)cccc4F)noc2C2CC2)C3)ccc2oc(C(=O)O)cc12 (some centres unmarked) [Example 28-10] | 9.05 |
| Cc1c(N2C3CC[C@H]2CC(OCc2c(-c4ccccc4OC(F)(F)F)noc2C2CC2)C3)ccc2oc(C(=O)O)cc12 (some centres unmarked) [Example 28-11] | 8.89 |
| Cc1c(N2C3CC[C@H]2CC(OCc2c(-c4ccccc4C(F)(F)F)noc2C2CC2)C3)ccc2oc(C(=O)O)cc12 (some centres unmarked) [Example 28-12] | 8.55 |
| O=C(O)c1cc2cc(N3C4CC[C@H]3CC(OCc3c(-c5ccccc5OC(F)(F)F)noc3C3CC3)C4)ccc2s1 (some centres unmarked) [Example 28-13] | 8.13 |
| O=C(O)c1cc2cc(N3C4CC[C@H]3CC(OCc3c(-c5ccccc5OC(F)(F)F)noc3C3CC3)C4)ccc2o1 (some centres unmarked) [Example 28-14] | 8.34 |
| O=C(O)c1cc2ccc(N3C4CC[C@H]3CC(OCc3c(-c5ccccc5OC(F)(F)F)noc3C3CC3)C4)cc2o1 (some centres unmarked) [Example 28-15] | 8.47 |
| Cn1nc(C(=O)O)c2cc(N3C4CC[C@H]3CC(OCc3c(-c5ccccc5OC(F)(F)F)noc3C3CC3)C4)ccc21 (some centres unmarked) [Example 28-16] | 7.20 |

| SMILES | pEC50 |
| --- | --- |
| O=C(O)c1cnc2c(N3C4CC[C@H]3CC(OCc3c(-c5ccccc5OC(F)(F)F)noc3C3CC3)C4)cccc2c1 (some centres unmarked) [Example 28-17] | 8.01 |
| O=C(O)c1noc2cc(N3C4CC[C@H]3CC(OCc3c(-c5ccccc5OC(F)(F)F)noc3C3CC3)C4)ccc12 (some centres unmarked) [Example 28-18] | 8.09 |
| Cn1c(C(=O)O)cc2cc(N3C4CC[C@H]3CC(OCc3c(-c5ccccc5OC(F)(F)F)noc3C3CC3)C4)ccc21 (some centres unmarked) [Example 28-19] | 8.82 |
| O=C(O)c1nsc2cc(N3C4CC[C@H]3CC(OCc3c(-c5ccccc5C(F)(F)F)noc3C3CC3)C4)ccc12 (some centres unmarked) [Example 28-21] | 8.66 |
| O=C(O)c1nsc2cc(N3[C@@H]4CC[C@H]3C[C@@H](OCc3c(-c5ccccc5C5CC5)noc3C3CC3)C4)ccc12 [Example 28-22] | 9.70 |
| O=C(O)c1nsc2cc(N3C4CC[C@H]3CC(OCc3c(-c5ccccc5OC(F)(F)F)noc3C3CC3)C4)c(F)cc12 (some centres unmarked) [Example 28-23] | 9.30 |
| O=C(O)c1cn2ccc(N3C4CCC3CC(OCc3c(-c5ccccc5OC(F)(F)F)noc3C3CC3)C4)cc2n1 (centres unmarked) [Example 28-24] | 7.62 |
| Cn1nc(C(=O)O)c2ccc(N3C4CC[C@H]3CC(OCc3c(-c5ccccc5OC(F)(F)F)noc3C3CC3)C4)cc21 (some centres unmarked) [Example 28-25] | 8.96 |
| Cn1nc(C(=O)O)c2ccc(N3[C@@H]4CC[C@H]3C[C@@H](OCc3c(-c5ccccc5C(F)(F)F)noc3C3CC3)C4)cc21 [Example 28-26] | 8.92 |
| O=C(O)c1cc(F)c2nc(N3C4CC[C@H]3CC(OCc3c(C5C6CCCC65)noc3C3CC3)C4)sc2c1 (some centres unmarked) [Example 29-1] | 7.85 |
| CC12CCCC1C2c1noc(C2CC2)c1COC1CC2CC[C@@H](C1)N2c1nc2c(F)cc(C(=O)O)cc2s1 (some centres unmarked) [Example 29-2] | 8.10 |
| O=C(O)c1cc(F)c2nc(N3[C@@H]4CC[C@H]3C[C@@H](OCc3c(C5CCCC5)noc3C3CC3)C4)sc2c1 [Example 29-3] | 7.96 |
| O=C(O)c1cc(F)c2nc(N3[C@@H]4CC[C@H]3C[C@@H](OCc3c(C5CC6(CC6)C5)noc3C3CC3)C4)sc2c1 [Example 29-4] | 7.96 |
| C[C@@H]1C(c2noc(C3CC3)c2COC2CC3CC[C@@H](C2)N3c2nc3c(F)cc(C(=O)O)cc3s2)C[C@@H]2C[C@H]1C2(C)C (some centres unmarked) [Example 29-5] | 8.22 |
| O=C(O)c1cc(F)c2nc(N3C4CC[C@H]3CC(OCc3c(C5CCCCC56CC6)noc3C3CC3)C4)sc2c1 (some centres unmarked) [Example 29-6] | 8.70 |
| O=C(O)c1cc(F)c2nc(N3C4CC[C@H]3CC(OCc3c(C5CCC6CC6C5)noc3C3CC3)C4)sc2c1 (some centres unmarked) [Example 29-7] | 8.30 |
| Cc1ccccc1-c1noc(C2CC2)c1COC1CC2CC[C@@H](C1)N2c1nc2c(F)cc(C(=O)O)cc2s1 (some centres unmarked) [Example 30-1] | 9.52 |
| Cc1ccccc1-c1noc(C2CC2)c1CO[C@H]1C[C@H]2CC[C@@H](C1)N2c1ccc(C(=O)O)cn1 [Example 30-2] | 8.00 |
| Cc1cc(C(=O)O)nc(N2C3CC[C@H]2CC(OCc2c(-c4ccccc4C)noc2C2CC2)C3)n1 (some centres unmarked) [Example 30-3] | 7.82 |
| Cc1ccccc1-c1noc(C2CC2)c1CO[C@H]1C[C@H]2CC[C@@H](C1)N2c1nc2ccc(C(=O)O)cc2s1 [Example 30-4] | 9.15 |

| SMILES | pEC50 |
| --- | --- |
| COc1cc(C(=O)O)cc2sc(N3C4CC[C@H]3CC(OCc3c(-c5ccccc5C)noc3C3CC3)C4)nc12 (some centres unmarked) [Example 30-5] | 9.40 |
| O=C(O)c1ccc2nc(N3[C@@H]4CC[C@H]3C[C@@H](OCc3c(-c5ccc(F)cc5)noc3C3CC3)C4)sc2c1 [Example 30-6] | 7.38 |
| COc1cc(C(=O)O)cc2sc(N3C4CC[C@H]3CC(OCc3c(-c5ccc(F)cc5)noc3C3CC3)C4)nc12 (some centres unmarked) [Example 30-7] | 7.74 |
| COc1cc(C(=O)O)cc2sc(N3[C@@H]4CC[C@H]3C[C@@H](OCc3c(-c5cccc(F)c5)noc3C3CC3)C4)nc12 [Example 30-8] | 7.68 |
| O=C(O)c1ccc(N2[C@@H]3CC[C@H]2C[C@@H](OCc2c(-c4cccc(F)c4)noc2C2CC2)C3)nc1 [Example 30-9] | 6.47 |
| Cc1cc(C(=O)O)nc(N2C3CC[C@H]2CC(OCc2c(-c4cccc(F)c4)noc2C2CC2)C3)n1 (some centres unmarked) [Example 30-10] | 6.32 |
| COc1cc(C(=O)O)cc2sc(N3C4CC[C@H]3CC(OCc3c(-c5c(C)cccc5F)noc3C3CC3)C4)nc12 (some centres unmarked) [Example 30-11] | 9.52 |
| Cc1cccc(F)c1-c1noc(C2CC2)c1COC1CC2CC[C@@H](C1)N2c1ccc(C(=O)O)cn1 (some centres unmarked) [Example 30-12] | 8.30 |
| Cc1cc(C(=O)O)nc(N2[C@@H]3CC[C@H]2C[C@@H](OCc2c(-c4c(C)cccc4F)noc2C2CC2)C3)n1 [Example 30-13] | 8.22 |
| COc1cc(C(=O)O)cc2sc(N3C4CC[C@H]3CC(OCc3c(-c5c(C)cccc5C)noc3C3CC3)C4)nc12 (some centres unmarked) [Example 30-14] | 8.92 |
| Cc1cccc(C)c1-c1noc(C2CC2)c1COC1CC2CC[C@@H](C1)N2c1ccc(C(=O)O)cn1 (some centres unmarked) [Example 30-15] | 8.05 |
| Cc1cc(C(=O)O)nc(N2C3CC[C@H]2CC(OCc2c(-c4c(C)cccc4C)noc2C2CC2)C3)n1 (some centres unmarked) [Example 30-16] | 7.62 |
| COc1cc(C(=O)O)cc2sc(N3C4CC[C@H]3CC(OCc3c(-c5c(F)cccc5Cl)noc3C3CC3)C4)nc12 (some centres unmarked) [Example 30-17] | 9.15 |
| O=C(O)c1ccc(N2[C@@H]3CC[C@H]2C[C@@H](OCc2c(-c4c(F)cccc4Cl)noc2C2CC2)C3)nc1 [Example 30-18] | 8.22 |
| Cc1cc(C(=O)O)nc(N2C3CC[C@H]2CC(OCc2c(-c4c(F)cccc4Cl)noc2C2CC2)C3)n1 (some centres unmarked) [Example 30-19] | 7.64 |
| COc1cc(C(=O)O)cc2sc(N3[C@@H]4CC[C@H]3C[C@@H](OCc3c(-c5ccccc5Cl)noc3C3CC3)C4)nc12 [Example 30-20] | 9.13 |
| O=C(O)c1ccc(N2C3CC[C@H]2CC(OCc2c(-c4ccccc4Cl)noc2C2CC2)C3)nc1 (some centres unmarked) [Example 30-21] | 8.52 |
| Cc1cc(C(=O)O)nc(N2C3CC[C@H]2CC(OCc2c(-c4ccccc4Cl)noc2C2CC2)C3)n1 (some centres unmarked) [Example 30-22] | 7.72 |
| O=C(O)c1cc(F)c2nc(N3[C@@H]4CC[C@H]3C[C@@H](OCc3c(-c5ccccc5C5CC5)noc3C3CC3)C4)sc2c1 [Example 30-23] | 9.40 |
